US12662465B2, “EGFR inhibitors” (Blueprint Medicines Corporation, priority 2021, dated 2026)
Like-named read-outs stand apart in the source and are kept apart here.

Tests used:
EGFR (d746-750) = molecular target: T1, EGFR (d746-750) (Homo sapiens, UniProt P00533, DEL746-750); assay: Biochemical EGFR inhibition assay (Caliper mobility shift), EGFR (d746-750); details: read-out: Enz EGFR_Exon19-del746-750 IC50
T1 construct: purchased SignalChem E10-122JG

[1] = molecular target: intracellular phosphorylation of EGFR (Tyr1068) in PC-9 cells (Ex19Del) (Homo sapiens, UniProt P00533, DEL746-750); assay: PC-9 pEGFR AlphaLISA assay; format: cell-based; details: 4 hours compound incubation, read-out: Ext pEGFR_PC-9 Ex19Del IC50
EGFR L858R = molecular target: T2, EGFR L858R (Homo sapiens, UniProt P00533, L858R); assay: Biochemical EGFR inhibition assay (Caliper mobility shift), EGFR L858R; details: read-out: Enz EGFR_L858R IC50
T2 construct: purchased SignalChem E10-122BG

[2] = 1.0 mM ATP or ATP Km, room temperature (25° C.)

T2 sequence (P00533 25-1210 L858R): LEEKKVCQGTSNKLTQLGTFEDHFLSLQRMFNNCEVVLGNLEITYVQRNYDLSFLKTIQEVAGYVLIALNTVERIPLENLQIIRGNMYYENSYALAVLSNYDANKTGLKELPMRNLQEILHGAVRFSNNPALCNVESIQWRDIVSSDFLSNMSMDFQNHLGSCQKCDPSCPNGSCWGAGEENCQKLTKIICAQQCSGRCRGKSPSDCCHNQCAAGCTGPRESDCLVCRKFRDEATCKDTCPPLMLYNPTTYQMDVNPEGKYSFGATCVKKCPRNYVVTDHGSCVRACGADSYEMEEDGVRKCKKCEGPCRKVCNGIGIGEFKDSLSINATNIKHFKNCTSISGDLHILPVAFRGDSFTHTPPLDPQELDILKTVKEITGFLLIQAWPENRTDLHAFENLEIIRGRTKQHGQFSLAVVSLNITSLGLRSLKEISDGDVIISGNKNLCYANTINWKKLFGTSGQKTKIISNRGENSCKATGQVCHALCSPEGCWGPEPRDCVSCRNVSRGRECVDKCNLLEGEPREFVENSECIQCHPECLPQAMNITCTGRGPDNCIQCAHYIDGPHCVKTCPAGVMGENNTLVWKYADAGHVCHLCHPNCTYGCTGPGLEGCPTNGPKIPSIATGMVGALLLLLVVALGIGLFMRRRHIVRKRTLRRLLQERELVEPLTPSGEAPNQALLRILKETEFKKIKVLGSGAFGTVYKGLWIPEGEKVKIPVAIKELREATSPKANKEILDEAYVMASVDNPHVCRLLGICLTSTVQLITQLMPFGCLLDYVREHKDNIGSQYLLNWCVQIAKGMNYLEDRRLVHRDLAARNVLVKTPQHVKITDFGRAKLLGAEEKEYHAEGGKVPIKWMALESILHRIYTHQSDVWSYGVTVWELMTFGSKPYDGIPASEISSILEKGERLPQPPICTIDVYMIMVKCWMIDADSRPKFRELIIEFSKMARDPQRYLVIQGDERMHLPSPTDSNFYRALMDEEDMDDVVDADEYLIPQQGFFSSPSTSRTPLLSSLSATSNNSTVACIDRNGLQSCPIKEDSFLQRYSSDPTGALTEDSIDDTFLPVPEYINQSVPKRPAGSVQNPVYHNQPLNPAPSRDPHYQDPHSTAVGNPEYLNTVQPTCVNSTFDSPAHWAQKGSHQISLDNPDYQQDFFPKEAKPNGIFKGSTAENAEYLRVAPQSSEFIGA
Chain of intracellular phosphorylation of EGFR (Tyr1068) in PC-9 cells (Ex19Del) (P00533 with tags, fused parts or gaps DEL746-750): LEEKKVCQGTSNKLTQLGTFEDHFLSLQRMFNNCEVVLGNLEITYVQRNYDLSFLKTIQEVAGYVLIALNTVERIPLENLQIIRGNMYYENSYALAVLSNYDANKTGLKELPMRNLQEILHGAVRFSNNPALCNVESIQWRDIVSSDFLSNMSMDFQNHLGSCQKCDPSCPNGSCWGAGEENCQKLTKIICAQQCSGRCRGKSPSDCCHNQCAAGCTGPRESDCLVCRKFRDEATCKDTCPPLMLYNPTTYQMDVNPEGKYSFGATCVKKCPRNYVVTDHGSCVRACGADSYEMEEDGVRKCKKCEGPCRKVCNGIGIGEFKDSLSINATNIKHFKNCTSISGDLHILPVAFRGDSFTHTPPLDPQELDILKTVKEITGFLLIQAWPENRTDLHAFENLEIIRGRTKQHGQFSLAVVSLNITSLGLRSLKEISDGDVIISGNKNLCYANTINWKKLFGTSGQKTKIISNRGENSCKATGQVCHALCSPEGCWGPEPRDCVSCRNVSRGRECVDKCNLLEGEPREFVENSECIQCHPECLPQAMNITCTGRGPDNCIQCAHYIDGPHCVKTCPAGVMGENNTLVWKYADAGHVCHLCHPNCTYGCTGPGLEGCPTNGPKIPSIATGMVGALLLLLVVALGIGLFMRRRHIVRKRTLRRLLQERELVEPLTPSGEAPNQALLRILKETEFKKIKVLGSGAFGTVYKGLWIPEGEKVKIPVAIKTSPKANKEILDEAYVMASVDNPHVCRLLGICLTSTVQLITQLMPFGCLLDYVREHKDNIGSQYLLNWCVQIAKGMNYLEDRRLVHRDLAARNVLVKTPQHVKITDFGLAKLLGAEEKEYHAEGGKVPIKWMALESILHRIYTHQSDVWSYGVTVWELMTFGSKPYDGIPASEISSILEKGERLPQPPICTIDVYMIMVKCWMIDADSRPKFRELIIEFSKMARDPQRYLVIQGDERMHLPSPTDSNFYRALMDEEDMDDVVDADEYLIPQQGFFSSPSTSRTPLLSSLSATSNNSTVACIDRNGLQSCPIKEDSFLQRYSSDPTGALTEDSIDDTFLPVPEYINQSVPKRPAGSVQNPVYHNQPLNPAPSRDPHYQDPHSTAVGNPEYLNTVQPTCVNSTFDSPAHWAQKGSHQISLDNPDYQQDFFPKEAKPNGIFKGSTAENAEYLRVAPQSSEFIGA
T1 sequence (P00533 with tags, fused parts or gaps DEL746-750 limits assumed): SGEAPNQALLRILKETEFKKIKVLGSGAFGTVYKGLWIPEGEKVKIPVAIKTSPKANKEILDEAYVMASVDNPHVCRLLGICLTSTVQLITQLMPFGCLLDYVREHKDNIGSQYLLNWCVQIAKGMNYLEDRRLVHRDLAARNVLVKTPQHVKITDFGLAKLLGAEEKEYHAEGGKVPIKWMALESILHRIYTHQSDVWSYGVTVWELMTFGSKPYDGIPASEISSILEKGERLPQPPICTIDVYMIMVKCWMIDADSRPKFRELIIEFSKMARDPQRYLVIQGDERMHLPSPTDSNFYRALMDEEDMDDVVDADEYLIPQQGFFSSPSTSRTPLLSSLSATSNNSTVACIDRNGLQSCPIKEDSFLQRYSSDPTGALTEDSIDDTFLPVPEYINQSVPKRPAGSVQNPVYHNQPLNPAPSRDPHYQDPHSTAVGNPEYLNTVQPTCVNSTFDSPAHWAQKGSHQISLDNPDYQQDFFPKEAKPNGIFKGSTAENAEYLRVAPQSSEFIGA

IC50 (EGFR (d746-750); [2]) [nM] | IC50 [1] [nM] | IC50 (EGFR L858R; [2]) [nM] | IC50 (EGFR (d746-750)) [nM] | IC50 (EGFR L858R) [nM] | Structure (SMILES)
< 10 | 10.1 to 50 | 10.1 to 50 | – | – | CN(C)C[C@@H](Oc1cc(-c2cnn(C)c2)cc2ncnc(Nc3ccc4ncccc4c3F)c12)C(F)F (single isomer, unassigned) [Example 38, (R)-5-((3-(dimethylamino)-1,1-difluoropropan-2-yl)oxy)-N-(5-fluoroquinolin-6-yl)-7-(1-methyl-1H-pyrazol-4-yl)quinazolin-4-amine or (S)-5-((3-(dimethylamino)-1,1-difluoropropan-2-yl)oxy)-N-(5-fluoroquinolin-6-yl)-7-(1-methyl-1H-pyrazol-4-yl)quinazolin-4-amine]
10.1 to 50 | > 50.1 | > 50.1 | – | – | C[C@H](CN(C)C)Oc1cc(-c2cnn(C)c2)cc2ncnc(Nc3ccc4ncccc4c3)c12 (single isomer, unassigned) [Example 43, (R)-5-((1-(dimethylamino)propan-2-yl)oxy)-7-(1-methyl-1H-pyrazol-4-yl)-N-(quinolin-6-yl)quinazolin-4-amine or (S)-5-((1-(dimethylamino)propan-2-yl)oxy)-7-(1-methyl-1H-pyrazol-4-yl)-N-(quinolin-6-yl)quinazolin-4-amine]
< 10 | ≤ 10 | < 10 | – | – | C[C@@H](CN(C)C)Oc1cc(-c2cnn(C)c2)cc2ncnc(Nc3ccc4ncccc4c3)c12 (single isomer, unassigned) [Example 44, (S)-5-((1-(dimethylamino)propan-2-yl)oxy)-7-(1-methyl-1H-pyrazol-4-yl)-N-(quinolin-6-yl)quinazolin-4-amine or (R)-5-((1-(dimethylamino)propan-2-yl)oxy)-7-(1-methyl-1H-pyrazol-4-yl)-N-(quinolin-6-yl)quinazolin-4-amine]
– | 10.1 to 50 | – | 10.1 to 50 | 10.1 to 50 | CC(CN(C)C)Oc1cc(N2CC3CC(C2)O3)cc2ncnc(Nc3ccc4ncccc4c3)c12 (single isomer, unassigned) [Example 67, 7-(6-oxa-3-azabicyclo[3.1.1]heptan-3-yl)-5-(((R)-1-(dimethylamino)propan-2-yl)oxy)-N-(quinolin-6-yl)quinazolin-4-amine or 7-(6-oxa-3-azabicyclo[3.1.1]heptan-3-yl)-5-(((S)-1-(dimethylamino)propan-2-yl)oxy)-N-(quinolin-6-yl)quinazolin-4-amine]
< 10 | ≤ 10 | < 10 | – | – | CO[C@@H]1CCN(c2cc(O[C@H](C)C3COC3)c3c(Nc4ccc5ncccc5c4F)ncnc3c2)C1 (single isomer, unassigned) [Example 85a, N-(5-fluoroquinolin-6-yl)-7-((R)-3-methoxypyrrolidin-1-yl)-5-((R)-1-(oxetan-3-yl)ethoxy)quinazolin-4-amine or N-(5-fluoroquinolin-6-yl)-7-((S)-3-methoxypyrrolidin-1-yl)-5-((R)-1-(oxetan-3-yl)ethoxy)quinazolin-4-amine]
< 10 | ≤ 10 | < 10 | – | – | CO[C@H]1CCN(c2cc(O[C@H](C)C3COC3)c3c(Nc4ccc5ncccc5c4F)ncnc3c2)C1 (single isomer, unassigned) [Example 85b, N-(5-fluoroquinolin-6-yl)-7-((S)-3-methoxypyrrolidin-1-yl)-5-((R)-1-(oxetan-3-yl)ethoxy)quinazolin-4-amine or N-(5-fluoroquinolin-6-yl)-7-((R)-3-methoxypyrrolidin-1-yl)-5-((R)-1-(oxetan-3-yl)ethoxy)quinazolin-4-amine]
< 10 | ≤ 10 | < 10 | – | – | CO[C@@H]1CCN(c2cc(O[C@H](C)CN(C)C)c3c(Nc4ccc5ncccc5c4F)ncnc3c2)C1 (single isomer, unassigned) [Example 87a, 5-(((R)-1-(dimethylamino)propan-2-yl)oxy)-N-(5-fluoroquinolin-6-yl)-7-((R)-3-methoxypyrrolidin-1-yl)quinazolin-4-amine or 5-(((R)-1-(dimethylamino)propan-2-yl)oxy)-N-(5-fluoroquinolin-6-yl)-7-((S)-3-methoxypyrrolidin-1-yl)quinazolin-4-amine]
< 10 | ≤ 10 | < 10 | – | – | CO[C@H]1CCN(c2cc(O[C@H](C)CN(C)C)c3c(Nc4ccc5ncccc5c4F)ncnc3c2)C1 (single isomer, unassigned) [Example 87b, 5-(((R)-1-(dimethylamino)propan-2-yl)oxy)-N-(5-fluoroquinolin-6-yl)-7-((S)-3-methoxypyrrolidin-1-yl)quinazolin-4-amine or 5-(((R)-1-(dimethylamino)propan-2-yl)oxy)-N-(5-fluoroquinolin-6-yl)-7-((R)-3-methoxypyrrolidin-1-yl)quinazolin-4-amine]
< 10 | ≤ 10 | < 10 | – | – | C[C@H](CN(C)C)Oc1cc(N2CCO[C@@H](C(F)F)C2)cc2ncnc(Nc3ccc4ncccc4c3F)c12 (single isomer, unassigned) [Example 99a, 7-((S)-2-(difluoromethyl)morpholino)-5-(((R)-1-(dimethylamino)propan-2-yl)oxy)-N-(5-fluoroquinolin-6-yl) or 7-((R)-2-(difluoromethyl)morpholino)-5-(((R)-1-(dimethylamino)propan-2-yl)oxy)-N-(5-fluoroquinolin-6-yl)quinazolin-4-amine]
< 10 | 10.1 to 50 | 10.1 to 50 | – | – | C[C@H](CN(C)C)Oc1cc(N2CCO[C@@H](C(F)F)C2)cc2ncnc(Nc3ccc4ncccc4c3F)c12 (single isomer, unassigned) [Example 99b, 7-((R)-2-(difluoromethyl)morpholino)-5-(((R)-1-(dimethylamino)propan-2-yl)oxy)-N-(5-fluoroquinolin-6-yl)quinazolin-4-amine or 7-((S)-2-(difluoromethyl)morpholino)-5-(((R)-1-(dimethylamino)propan-2-yl)oxy)-N-(5-fluoroquinolin-6-yl)]
< 10 | ≤ 10 | < 10 | – | – | C[C@@H](Oc1cc(-c2cnn([C@@H](C)CO)c2)cc2ncnc(Nc3ccc4ncccc4c3F)c12)C1COC1 (single isomer, unassigned) [Example 121, (S)-2-(4-(4-((5-fluoroquinolin-6-yl)amino)-5-((R)-1-(oxetan-3-yl)ethoxy)quinazolin-7-yl)-1H-pyrazol-1-yl)propan-1-ol or (R)-2-(4-(4-((5-fluoroquinolin-6-yl)amino)-5-((R)-1-(oxetan-3-yl)ethoxy)quinazolin-7-yl)-1H-pyrazol-1-yl)propan-1-ol]
< 10 | ≤ 10 | < 10 | – | – | C[C@@H](Oc1cc(-c2cnn(C)c2)cc2ncnc(Nc3ccc4ncccc4c3F)c12)[C@@H]1COCCN1 (single isomer, unassigned) [Example 123]
< 10 | 10.1 to 50 | < 10 | – | – | C[C@@H](Oc1cc(-c2cnn(C)c2)cc2ncnc(Nc3ccc4ncccc4c3F)c12)[C@@H]1COCCN1 (single isomer, unassigned) [Example 124]
– | 10.1 to 50 | – | < 10 | < 10 | C[C@H](CN(C)C)Oc1cc(-c2cnn(C)c2)cc2c1c(Nc1ccc3ncccc3c1F)nc[n+]2[O-] (single isomer, unassigned) [Example 127]
– | > 50.1 | – | 10.1 to 50 | 10.1 to 50 | C[C@H](CN(C)C)Oc1cc(-c2cnn(C)c2)cc2nc[n+]([O-])c(Nc3ccc4ncccc4c3F)c12 (single isomer, unassigned) [Example 128]
– | 10.1 to 50 | – | < 10 | 10.1 to 50 | C[C@H](CN(C)C)Oc1cc(-c2cnn(C)c2)cc2ncnc(Nc3ccc4c(ccc[n+]4[O-])c3F)c12 (single isomer, unassigned) [Example 129]

Structure (SMILES) | IC50 (EGFR (d746-750); [2]) [nM] | IC50 [1] [nM] | IC50 (EGFR L858R; [2]) [nM] | IC50 (EGFR (d746-750)) [nM] | IC50 (EGFR L858R) [nM]
CN(C)C[C@H](Oc1cc(-c2cnn(C)c2)cc2ncnc(Nc3ccc4ncccc4c3F)c12)C(F)F (single isomer, unassigned) [Example 37, (S)-5-((3-(dimethylamino)-1,1-difluoropropan-2-yl)oxy)-N-(5-fluoroquinolin-6-yl)-7-(1-methyl-1H-pyrazol-4-yl)quinazolin-4-amine or (R)-5-((3-(dimethylamino)-1,1-difluoropropan-2-yl)oxy)-N-(5-fluoroquinolin-6-yl)-7-(1-methyl-1H-pyrazol-4-yl)quinazolin-4-amine] | < 10 | ≤ 10 | < 10 | – | –
C[C@@H](CN(C)C)Oc1cc(N2CC3CC(C2)O3)cc2ncnc(Nc3ccc4ncccc4c3)c12 (single isomer, unassigned) [Example 68, 7-(6-oxa-3-azabicyclo[3.1.1]heptan-3-yl)-5-(((S)-1-(dimethylamino)propan-2-yl)oxy)-N-(quinolin-6-yl)quinazolin-4-amine or 7-(6-oxa-3-azabicyclo[3.1.1]heptan-3-yl)-5-(((R)-1-(dimethylamino)propan-2-yl)oxy)-N-(quinolin-6-yl)quinazolin-4-amine] | < 10 | ≤ 10 | 10.1 to 50 | – | –
C[C@@H](Oc1cc(-c2cnn(C)c2)cc2ncnc(Nc3ccc4ncccc4c3F)c12)[C@@H]1COCCN1C (single isomer, unassigned) [Example 125] | < 10 | 10.1 to 50 | < 10 | – | –
C[C@@H](Oc1cc(-c2cnn(C)c2)cc2ncnc(Nc3ccc4ncccc4c3F)c12)[C@@H]1COCCN1C (single isomer, unassigned) [Example 126] | < 10 | ≤ 10 | < 10 | – | –
